Assay results reported in ChEMBL document CHEMBL1201862, “PubChem BioAssay data set” (2004).
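Cultured in 96-well plates, cells were exposed to test compound for 48 hours across five concentrations. Here, GI50 denotes the concentration required for 50% inhibition of growth.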 Activity calls are given as the source filed them. Cut-off read from the data, not from the text of the source: active = GI50 up to about 1.1 µM and inactive = higher.

What was measured:
Experiment in all cases: NCI anticancer screen, dose series, 48 h
[1] = system: UO-31
[2] = system: HT-29
[3] = system: NCI-H460
[4] = system: SNB-75
[5] = system: RXF 393
[6] = system: U-251
[7] = system: RPMI-8226
[8] = system: TK-10
[9] = system: SF-539
[10] = system: M14
[11] = system: SNB-19
[12] = system: COLO 205
[13] = system: CCRF-CEM
[14] = system: SN12C
[15] = system: HOP-92
[16] = system: MDA-N
[17] = system: SF-295
[18] = system: HCT-15
[19] = system: CAKI-1
[20] = system: HCC 2998

Structure (SMILES)	GI50 [1]	GI50 [2]	GI50 [3]	GI50 [4]	GI50 [5]	GI50 [6]	GI50 [7]	GI50 [8]	GI50 [9]	GI50 [10]	GI50 [11]	GI50 [12]	GI50 [13]	GI50 [14]	GI50 [15]	GI50 [16]	GI50 [17]	GI50 [18]	GI50 [19]	GI50 [20]
COC(=O)C1=CS/C(=C2\S[C@@H]3[C@H](S2)[C@H]2C=C[C@@H]3C2)S1	46.1 µM (inactive)	13.1 µM (inactive)	34.9 µM (inactive)	46.1 µM (inactive)	29.6 µM (inactive)	8.49 µM (inactive)	30.7 µM (inactive)	> 100 µM (inactive)	6.19 µM (inactive)	48.3 µM (inactive)	77.1 µM (inactive)	32.8 µM (inactive)	17.6 µM (inactive)	> 100 µM (inactive)	79.8 µM (inactive)	3.49 µM (inactive)	2.96 µM (inactive)	17.3 µM	7.14 µM (inactive)	–
OC12CC3c4ccccc4NC3C3Oc4cccc5c4C31CCN(CC1CC1)C2C5 (stereo not drawn)	15.8 µM (inactive)	15.5 µM (inactive)	17.6 µM (inactive)	15.3 µM (inactive)	14.3 µM (inactive)	17.3 µM (inactive)	18.4 µM (inactive)	17.3 µM (inactive)	26.5 µM (inactive)	17.7 µM (inactive)	18.2 µM (inactive)	20.9 µM (inactive)	23.4 µM (inactive)	17.2 µM (inactive)	11.4 µM (inactive)	17.9 µM (inactive)	30.9 µM (inactive)	17.9 µM	17.6 µM (inactive)	–
CC1OC(OC2C(CO)OC(O[C@H]3CC[C@@]4(C)C(=CC[C@H]5[C@@H]6C[C@@H]7O[C@](O)(CC[C@H](C)COC8OC(CO)C(O)C(O)C8O)[C@@H](C)[C@@H]7[C@@]6(C)CC[C@@H]54)C3)C(OC3OC(C)C(O)C(O)C3O)C2O)C(O)C(O)C1O (stereo partly drawn)	3.63 µM (inactive)	11.9 µM (inactive)	4.81 µM (inactive)	2.16 µM (inactive)	5.11 µM (inactive)	3.15 µM (inactive)	6.25 µM (inactive)	> 73.3 µM (inactive)	2.82 µM (inactive)	3.05 µM (inactive)	2.8 µM (inactive)	5.01 µM (inactive)	1.42 µM (inactive)	10 µM (inactive)	3.56 µM (inactive)	3.4 µM (inactive)	4.41 µM (inactive)	2.75 µM	1.77 µM (inactive)	–
Nc1[nH]c(=S)[nH]c(=O)c1/N=N/c1c(Br)cc(S(N)(=O)=O)cc1Br	> 100 µM (inactive)	> 100 µM (inactive)	> 100 µM (inactive)	35.7 µM (inactive)	> 100 µM (inactive)	> 100 µM (inactive)	> 100 µM (inactive)	> 100 µM (inactive)	> 100 µM (inactive)	> 100 µM (inactive)	> 100 µM (inactive)	> 100 µM (inactive)	> 100 µM (inactive)	> 100 µM (inactive)	> 100 µM (inactive)	> 100 µM (inactive)	> 100 µM (inactive)	> 100 µM	> 100 µM (inactive)	–
COC(=O)c1c(C#N)[nH]c(-c2ccsc2)c1C(=O)OC	56.4 µM (inactive)	> 100 µM (inactive)	–	> 100 µM (inactive)	> 100 µM (inactive)	> 100 µM (inactive)	40.4 µM (inactive)	> 100 µM (inactive)	–	> 100 µM (inactive)	–	> 100 µM (inactive)	> 100 µM (inactive)	> 100 µM (inactive)	51.6 µM (inactive)	> 100 µM (inactive)	> 100 µM (inactive)	–	33.4 µM (inactive)	–
Cc1ccc2n(c1)cc(-c1ccc(/C=N/NC(=N)N/N=C/c3ccc(-c4cn5cc(C)ccc5[n+]4C)cc3)cc1)[n+]2C	25.6 µM (inactive)	> 100 µM (inactive)	80.2 µM (inactive)	20.9 µM (inactive)	–	> 100 µM (inactive)	> 100 µM (inactive)	> 100 µM (inactive)	39.8 µM (inactive)	33.9 µM (inactive)	> 100 µM (inactive)	> 100 µM (inactive)	> 100 µM (inactive)	> 100 µM (inactive)	–	50.2 µM (inactive)	> 100 µM (inactive)	95.9 µM	–	> 100 µM (inactive)
